Assay results published in patent US11160489B2, “Wireless optofluidic systems for programmable in vivo pharmacology and optogenetics” (THE BOARD OF TRUSTEES OF THE UNIVERSITY OF ILLINOIS, priority 2015, dated 2021).
Entries after “also recorded” stand apart in the source; their conditions may differ.

Target: T1, μ-opioid receptor (MOPR) (Mus musculus, UniProt P42866)
T1 construct: from tissue; host or cells: ventral tegmental area of living wild-type C57Bl6 mice (in vivo)
Assay: Contraversive rotation/locomotor testing assay after wireless intra-VTA infusion
Assay type: in vivo
Settings: 200 pmol, wireless unilateral intra-VTA infusion, within-subject vs ACSF vehicle, wild-type mice, n=7
Description: As a proof-of-principle within-subject in vivo pharmacology experiment, two chambers of each device were loaded with different pharmacological agents; one with the synthetic opioid peptide and MOPR agonist, [D-Ala^2, N-MePhe^4, Gly-ol]-enkephalin (DAMGO, 200 pmol, Tocris), and one with artificial cerebral spinal fluid (ACSF) as a vehicle control. In a counter-balanced design, either the DAMGO or vehicle was wirelessly delivered into the VTA of freely behaving animals over a distance of ˜1 m away from the animal (FIGS. 88, A and B).
After the mice were acclimatized to the holding facility for seven to nine days, they were anaesthetized in an induction chamber (4% Isolflurane) and placed in a stereotaxic frame (Kopf Instruments, Model 1900) where they were maintained at 1-2% isoflurane. […] For the DAMGO-induced rotation experiment, mice were implanted with the microfluidic device above the VTA (stereotaxic coordinates from bregma (mm): AP:-3.10, ML: +/−0.50, DV: −4.25). […] A standard electrode holder (KOPF 1770) was adapted to implant the microfluidic and optofluidic devices. […] The implants were secured using two bone screws (CMA, 743102) and affixed with dental cement (Lang Dental). C571Bl6 mice were allowed to recover for 5 days prior to behavioral testing.
C571Bl6 mice with microfluidic devices implanted above the VTA were placed in the center of the same arena used for the OFT and allowed to roam freely for 1 hr. Wireless infusion of vehicle or DAMGO was initiated and movements were video recorded and analyzed using Ethovision. Rotations were defined as full 360° revolutions in the path of movement.

T1 sequence (P42866 whole entry): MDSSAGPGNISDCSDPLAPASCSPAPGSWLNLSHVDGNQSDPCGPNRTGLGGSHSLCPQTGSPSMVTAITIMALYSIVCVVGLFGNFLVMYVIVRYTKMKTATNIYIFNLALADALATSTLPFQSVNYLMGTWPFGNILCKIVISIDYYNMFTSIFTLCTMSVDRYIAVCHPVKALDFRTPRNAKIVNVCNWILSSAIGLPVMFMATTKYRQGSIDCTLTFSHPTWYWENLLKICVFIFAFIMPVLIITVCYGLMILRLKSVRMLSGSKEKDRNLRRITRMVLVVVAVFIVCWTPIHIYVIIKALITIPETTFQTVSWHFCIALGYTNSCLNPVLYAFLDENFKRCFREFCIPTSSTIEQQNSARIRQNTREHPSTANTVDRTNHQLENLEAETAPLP

Structure (SMILES): C[C@@H](NC(=O)[C@@H](N)Cc1ccc(O)cc1)C(=O)NCC(=O)N(C)[C@@H](Cc1ccccc1)C(=O)NCCO [DAMGO, [D-Ala^2, N-MePhe^4, Gly-ol]-enkephalin]
- contraversive 360° rotations: significant increase; also recorded: stereotypical rotations contralateral to injection site
- overall locomotor activity: significant increase; also recorded: robust increase in overall locomotor activity
